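Cultured in 96-well plates, cells were exposed to test compound for 48 hours across five concentrations. Abbreviation: GI50, concentration required for 50% inhibition of growth.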 Active and inactive are the calls of the source. Cut-off read from the data, not from the text of the source: active = GI50 up to about 1.1 µM and inactive = higher.
Columns and labels:
Assay in all cases: growth of human tumour cells (NCI), 48 h
COLO 205 = tested on: COLO 205
SK-OV-3 = tested on: SK-OV-3
SF-295 = tested on: SF-295
T47D = tested on: T47D
MDA-MB-231 = tested on: MDA-MB-231
RXF 393 = tested on: RXF 393
HT-29 = tested on: HT-29
NCI-H23 = tested on: NCI-H23
K562 = tested on: K562
SK-MEL-5 = tested on: SK-MEL-5
SF-539 = tested on: SF-539
SR = tested on: SR
OVCAR-5 = tested on: OVCAR-5
SK-MEL-2 = tested on: SK-MEL-2
786-0 = tested on: 786-0
CCRF-CEM = tested on: CCRF-CEM
SF-268 = tested on: SF-268
TK-10 = tested on: TK-10
UO-31 = tested on: UO-31
SNB-19 = tested on: SNB-19

SMILES | GI50 (COLO 205) | GI50 (SK-OV-3) | GI50 (SF-295) | GI50 (T47D) | GI50 (MDA-MB-231) | GI50 (RXF 393) | GI50 (HT-29) | GI50 (NCI-H23) | GI50 (K562) | GI50 (SK-MEL-5) | GI50 (SF-539) | GI50 (SR) | GI50 (OVCAR-5) | GI50 (SK-MEL-2) | GI50 (786-0) | GI50 (CCRF-CEM) | GI50 (SF-268) | GI50 (TK-10) | GI50 (UO-31) | GI50 (SNB-19)
CCOP(=O)(OCC)/C(=C/n1c(=S)[nH]c2ccccc21)C(=O)OC | > 100 µM (inactive) | > 100 µM (inactive) | > 100 µM (inactive) | > 100 µM (inactive) | > 100 µM (inactive) | > 100 µM (inactive) | > 100 µM (inactive) | > 100 µM (inactive) | > 100 µM (inactive) | > 100 µM (inactive) | > 100 µM (inactive) | > 100 µM (inactive) | > 100 µM (inactive) | > 100 µM (inactive) | > 100 µM (inactive) | > 100 µM (inactive) | > 100 µM (inactive) |  |  | 
Cc1coc2c1C(OC(=O)C(C)C)C1(C)C(C)CCC(O)C1C2=O (stereo not given) | 97.7 µM (inactive) | > 100 µM (inactive) | > 100 µM (inactive) | > 100 µM (inactive) | > 100 µM (inactive) | > 100 µM (inactive) | > 100 µM (inactive) | > 100 µM (inactive) | 54 µM (inactive) | > 100 µM (inactive) | > 100 µM (inactive) | 51.2 µM (inactive) | > 100 µM (inactive) | > 100 µM (inactive) | > 100 µM (inactive) | 57.4 µM (inactive) | > 100 µM (inactive) | > 100 µM (inactive) | 50.2 µM (inactive) | 
C=CCc1cccc2cc(C(=O)NCc3ccccc3)c(=N)oc12 | 40.6 µM (inactive) | 46.2 µM (inactive) |  | 24.5 µM (inactive) | 30.6 µM (inactive) | 46.3 µM (inactive) | 34.4 µM (inactive) | 31.9 µM (inactive) | > 100 µM (inactive) | 25.5 µM (inactive) | 47.5 µM (inactive) | > 100 µM (inactive) | 54 µM (inactive) | 12.1 µM (inactive) | 29.1 µM (inactive) | 32.6 µM (inactive) | 36.1 µM (inactive) |  |  | 29.9 µM (inactive)
Oc1ccc(-c2ccccc2)nn1 |  |  | > 100 µM (inactive) | > 100 µM (inactive) | > 100 µM (inactive) | > 100 µM (inactive) | > 100 µM (inactive) | > 100 µM (inactive) | > 100 µM (inactive) | > 100 µM (inactive) |  | > 100 µM (inactive) | > 100 µM (inactive) | > 100 µM (inactive) | > 100 µM (inactive) | > 100 µM (inactive) | > 100 µM (inactive) | > 100 µM (inactive) | > 100 µM (inactive) | > 100 µM (inactive)
CC(C)[C@@H]1NC(=O)[C@@H]2N=C(O[C@H]2C)[C@H](C(C)C)NC(=O)C2N=C1O[C@H]2C | > 100 µM (inactive) |  | > 100 µM (inactive) | > 100 µM (inactive) | > 100 µM (inactive) | > 100 µM (inactive) | > 100 µM (inactive) | > 100 µM (inactive) | > 100 µM (inactive) | > 100 µM (inactive) | > 100 µM (inactive) | > 100 µM (inactive) | > 100 µM (inactive) | > 100 µM (inactive) | > 100 µM (inactive) | > 100 µM (inactive) | > 100 µM (inactive) | > 100 µM (inactive) | > 100 µM (inactive) | > 100 µM (inactive)
O=C(NCc1ccccc1)c1cc2ccccc2o/c1=N\c1ccccc1F | 26.4 µM (inactive) | 16.5 µM (inactive) | 22 µM (inactive) | 16.6 µM (inactive) | 17.6 µM (inactive) | 21.5 µM (inactive) | 45.8 µM (inactive) | 21.5 µM (inactive) | > 100 µM (inactive) | 19.1 µM (inactive) |  | 32.7 µM (inactive) | 43.4 µM (inactive) | 28.1 µM (inactive) | 10.8 µM (inactive) | > 100 µM (inactive) | 30.8 µM (inactive) | 13.6 µM (inactive) | 8.39 µM (inactive) | 25.6 µM (inactive)
O=c1[nH]c2cc(C(F)(F)F)ccc2nc1Cc1ccccc1 | > 100 µM (inactive) | 33 µM (inactive) | 40.6 µM (inactive) | 38.5 µM (inactive) | 30.8 µM (inactive) | 37.7 µM (inactive) | > 100 µM (inactive) | 23.4 µM (inactive) | 62.2 µM (inactive) | > 100 µM (inactive) | 63.2 µM (inactive) | 36.6 µM (inactive) |  | > 100 µM (inactive) | 36.6 µM (inactive) | > 100 µM (inactive) | 44.2 µM (inactive) | > 100 µM (inactive) | 78.3 µM (inactive) | 66.2 µM (inactive)
CCCCC/C(C=O)=C\c1ccccc1 | > 100 µM (inactive) | > 100 µM (inactive) | > 100 µM (inactive) | > 100 µM (inactive) | > 100 µM (inactive) | > 100 µM (inactive) | > 100 µM (inactive) | > 100 µM (inactive) | 20.3 µM (inactive) | > 100 µM (inactive) | > 100 µM (inactive) | > 100 µM (inactive) |  | > 100 µM (inactive) | > 100 µM (inactive) | 80.4 µM (inactive) | > 100 µM (inactive) | > 100 µM (inactive) | > 100 µM (inactive) | > 100 µM (inactive)
Cc1cn(C2CC(O)C(Cn3cc(Cn4ncc(=O)[nH]c4=O)nn3)O2)c(=O)[nH]c1=O (stereo not given) | > 100 µM (inactive) | > 100 µM (inactive) | > 100 µM (inactive) | > 100 µM (inactive) | > 100 µM (inactive) | > 100 µM (inactive) | > 100 µM (inactive) | > 100 µM (inactive) |  | > 100 µM (inactive) | > 100 µM (inactive) | > 100 µM (inactive) | > 100 µM (inactive) | > 100 µM (inactive) | > 100 µM (inactive) | 0.478 µM (active) | > 100 µM (inactive) | > 100 µM (inactive) | > 100 µM (inactive) | > 100 µM (inactive)
O=C(NCCCNCCNC(=O)c1cc(-c2ccccc2)nc2ccccc12)c1cc(-c2ccccc2)nc2ccccc12 | 1.72 µM (inactive) | 3.27 µM (inactive) | 1.73 µM (inactive) | 1.91 µM (inactive) | 1.86 µM (inactive) | 2 µM (inactive) | 1.52 µM (inactive) |  | 1.94 µM (inactive) | 1.64 µM (inactive) | 1.82 µM (inactive) | 2.75 µM (inactive) |  | 2.24 µM (inactive) | 1.79 µM (inactive) | 0.783 µM (active) | 2.1 µM (inactive) | 1.66 µM (inactive) | 1.86 µM (inactive) | 1.87 µM (inactive)
O=S(=O)(CCC[C@H]1[C@@H](CCOCc2ccccc2)C2CCCN1O2)c1ccccc1 (stereo not given in full) | > 100 µM (inactive) | > 100 µM (inactive) | > 100 µM (inactive) | 59.2 µM (inactive) | > 100 µM (inactive) | > 100 µM (inactive) | > 100 µM (inactive) | > 100 µM (inactive) | 63.2 µM (inactive) | 43.3 µM (inactive) | > 100 µM (inactive) | > 100 µM (inactive) | > 100 µM (inactive) |  | > 100 µM (inactive) | > 100 µM (inactive) | > 100 µM (inactive) | > 100 µM (inactive) | > 100 µM (inactive) | > 100 µM (inactive)
CC(C)(C)O/N=C/c1cc(NC(=S)c2ccccc2)ccc1Cl | 14.3 µM (inactive) | 29.4 µM (inactive) | 18 µM (inactive) | 18.9 µM (inactive) | 21.3 µM (inactive) | 12.3 µM (inactive) | 13.7 µM (inactive) | 15.6 µM (inactive) |  | 21 µM (inactive) | 25.7 µM (inactive) | 15.1 µM (inactive) | 23.8 µM (inactive) | 16.6 µM (inactive) | 14.3 µM (inactive) | 23 µM (inactive) | 21.1 µM (inactive) | 12.2 µM (inactive) | 12.8 µM (inactive) | 22.4 µM (inactive)
N#CC1C(=O)N(c2ccccc2)NC12OC(=O)c1ccncc12 (stereo not given) | > 20 µM (inactive) | > 20 µM (inactive) | > 20 µM (inactive) | > 20 µM (inactive) | > 20 µM (inactive) | > 20 µM (inactive) | > 20 µM (inactive) | > 20 µM (inactive) | > 20 µM (inactive) | > 20 µM (inactive) | > 20 µM (inactive) | > 20 µM (inactive) | > 20 µM (inactive) | > 20 µM (inactive) | > 20 µM (inactive) | > 20 µM (inactive) |  |  | > 20 µM (inactive) | > 20 µM (inactive)
Cc1ncc(CSc2ccccc2N)c(CO)c1O | > 100 µM (inactive) | > 100 µM (inactive) | > 100 µM (inactive) | > 100 µM (inactive) | > 100 µM (inactive) | > 100 µM (inactive) | > 100 µM (inactive) | > 100 µM (inactive) | > 100 µM (inactive) | > 100 µM (inactive) | > 100 µM (inactive) | > 100 µM (inactive) | > 100 µM (inactive) | > 100 µM (inactive) | > 100 µM (inactive) |  | > 100 µM (inactive) | > 100 µM (inactive) |  | > 100 µM (inactive)
COc1ccc(/N=N/c2c(C)c(C#N)c(=S)n(C3OC(COC(C)=O)C(OC(C)=O)C(OC(C)=O)C3OC(C)=O)c2-c2ccccc2)cc1 (stereo not given) | 6.93 µM (inactive) |  | 5.85 µM (inactive) | 19.4 µM (inactive) | 6.04 µM (inactive) | 11.5 µM (inactive) | 5.94 µM (inactive) | 15.6 µM (inactive) | 4.52 µM (inactive) |  | > 10 µM (inactive) | 4.07 µM (inactive) | 13.2 µM (inactive) | 8.04 µM (inactive) | 3.12 µM (inactive) | 4.94 µM (inactive) | 9.59 µM (inactive) | 19.2 µM (inactive) | 39.8 µM (inactive) | 11 µM (inactive)

Source: ChEMBL document CHEMBL1201862, “PubChem BioAssay data set” (2004)
